Experimental data: PubChem BioAssay AID1996
In brackets after ≈: the same amount, converted by molar mass.

conditions: buffer; pH 7.4; 200.0 µM

SMILES | solubility kinetic [µg/mL]
Cc1ccc(NC(=O)Nc2ccon2)cc1Cl | 4 (≈ 15.9 µM)
CC1CCCCN1C(=O)CCS(=O)(=O)Cc1ccccc1 (stereo not given) | 35 (≈ 113 µM)
COc1ccc(NC(=O)COc2ccc3oc(=O)cc(C)c3c2)cc1 | < 0.7
COC(=O)c1c(C)[nH]c(C(=O)/C=C/c2ccc(C)cc2)c1C | 1.7 (≈ 5.72 µM)
Cc1ccc(C(=O)CN2C(=O)C(C)Oc3ccccc32)cc1 (stereo not given) | 21.6 (≈ 73.1 µM)
Cc1cc(C)c(NC(=O)CN(C)CC(=O)Nc2cccc(S(=O)(=O)N(C)c3ccccc3)c2)c(C)c1.O=C(O)C(=O)O | 14.3
CC1=N/C(=C/c2cc(Br)cc(Br)c2O)C(=O)O1 | 2.8 (≈ 7.76 µM)
O=C1CCCc2nc(N3CCN(C(=O)c4ccco4)CC3)ncc21 | > 49
CCC(NC(=O)C1CCCO1)c1ccccc1 (stereo not given) | > 35
Cc1nsc(Nc2ccccc2)c1C#N | 7.7 (≈ 35.8 µM)
CC(Oc1ccc(Cl)cc1)C(=O)NCC1CCCO1 (stereo not given) | 41.5 (≈ 146 µM)
Cc1ccc(C2(c3ccc(C)cc3)CC2C(=O)NC(C)C)cc1 (stereo not given) | 1 (≈ 3.25 µM)
CCN(CC)P(=O)(Oc1ccccc1)Oc1ccccc1 | 34.2 (≈ 112 µM)
Cc1ccc(N2C(=O)C(CN3CCCCC3)C2c2ccccc2)cc1 (stereo not given) | 27 (≈ 80.7 µM)
O=C(c1cccs1)N1CCN(c2ncc(Br)cn2)CC1 | 9.5 (≈ 26.9 µM)
Cc1ccc(NC(=O)CN2C(=O)NC(C)(CC(C)C)C2=O)c(Br)c1 (stereo not given) | 55.5 (≈ 140 µM)
COc1cc2[nH]c(Cl)c([N+](=O)[O-])c2cc1OC | > 38.5
Cc1ccc2ncnc(Oc3ncccc3NC(=O)C(C)(C)C)c2c1 | > 50.5
CC1CCCCC12NC(=O)N(CC(=O)c1ccc(Cl)s1)C2=O (stereo not given) | 8.5 (≈ 24.9 µM)
CCOc1ccc(C2/C(=C(/O)c3ccc4c(c3)CC(C)O4)C(=O)C(=O)N2CC2CCCO2)cc1 (stereo not given) | 61.8 (≈ 133 µM)

SMILES | solubility kinetic [µg/mL]
CCCNC(=O)CN1C(=O)NC(CC)(c2ccc(F)cc2)C1=O (stereo not given) | > 48.2
Cc1ccnc(NC(=O)c2cccc(S(=O)(=O)Nc3ccc(C)cc3C)c2)c1 | 10.7 (≈ 27.1 µM)
COc1ccc(C2Nc3ccccc3C(=O)N2NC(C)=O)cc1OC (stereo not given) | > 51.2
Cc1ccc(C(C)NC(=O)C2CCCC2)cc1C (stereo not given) | 31.4 (≈ 128 µM)
Cc1cccc(C)c1N(CC(=O)N1CCCC1)S(C)(=O)=O | 35.2 (≈ 113 µM)
O=[N+]([O-])c1ccc(Sc2ncc3ccccn23)nc1 | 20.6 (≈ 75.7 µM)
CCN(CC)CCNC(=O)c1cc(S(C)(=O)=O)ccc1OC.Cl | 52.5
COc1ccc(Nc2nnc(C)c(=O)[nH]2)c(OC)c1 | > 39.3
O=C(CCCN1C(=O)c2ccccc2C1=O)NCCCn1ccnc1 | 49.5 (≈ 145 µM)
CC(=O)N1CCN(CCS(=O)(=O)c2cc(Cl)ccc2Cl)CC1 | > 54.8
CCOC(=O)Nc1ccc(N2CCOCC2)c(S(=O)(=O)Nc2ccc(Cl)cc2)c1 | 7.8 (≈ 17.7 µM)
CN1C(=O)CSC1=Nc1cccc(Cl)c1 | 34.2 (≈ 142 µM)
O=C1CNC(=S)N1Cc1ccccc1Cl | > 36.1
CCOC(=O)Cn1c(C)c(Br)c(COC)c(C#N)c1=O | > 51.5
Cc1cccc(C(=O)OCc2cncs2)c1 | 28.9 (≈ 124 µM)
COc1ccc(N2CCN(C(=O)Cn3cncn3)CC2)cc1 | > 45.2
N#C/C(=C\c1ccc(O)cc1)C(=O)N1CCCC1 | 30.1 (≈ 124 µM)
Cc1cc(C)n2nc(-c3ccco3)nc2n1 | > 32.1
Cl.NS(=O)(=O)c1ccc(CCNC/C=C/c2ccccc2)cc1 | > 52.9
CCOC(=O)c1sc(NC(=O)Cc2ccc(F)cc2)nc1C | 3.8 (≈ 11.8 µM)

SMILES | solubility kinetic [µg/mL]
COc1ccc(CCC(C)NCc2ccccc2OC)cc1 (stereo not given) | 32 (≈ 107 µM)
Cc1ccc([N+](=O)[O-])c(OCc2ncc(Cl)n2C)c1 | 9.8 (≈ 34.8 µM)
CCn1c(C)cc(O)c(C(=O)Nc2cccc(Cl)c2)c1=O | < 0.3
CC(C)c1nc2sc(C(=O)O)c(N)c2c2c1CCCC2 | 14.6 (≈ 50.3 µM)
CCOC(=O)CC(=O)CSc1nc(CC)c(C)cc1C#N | > 46
Cc1cc(/C=N/NC(N)=O)c(C)n1C1CCCCC1 | > 39.4
Cc1ccc(NC(=O)CNC(=O)c2ccco2)cc1Cl | 7 (≈ 23.9 µM)
COc1ccc(-c2cc(C(F)(F)F)c(C#N)c(SCC(=O)O)n2)cc1 | 53.6 (≈ 146 µM)
CCOc1ccccc1/C=C/c1cc(C(=O)O)c2ccccc2n1 | 45.8 (≈ 143 µM)
O=C(CCl)Nc1cccc(S(=O)(=O)NC2=NCCCCC2)c1 | > 51.6
c1ccc2c(Nc3nc(-c4ccncc4)nc4ccccc34)cccc2c1 | < 0.2
Cc1nc(-c2ccc([N+](=O)[O-])cc2)c(-c2ccccc2)o1 | 5.1 (≈ 18.2 µM)
Cc1ccc(C)c(S(=O)(=O)NCc2ccc(C(=O)N3CCOCC3)cc2)c1 | > 58.3
Nc1nccc(/C=C/c2ccc(Cl)cc2)n1 | 3.2 (≈ 13.8 µM)
Cc1cccc(NC(=O)NNC(=O)c2ccccn2)c1 | > 40.5
COc1ccccc1NC(=O)/C(C#N)=C/c1cccn1C | 0.6 (≈ 2.13 µM)
O=C1OCc2ccc(NC(=O)c3ccccc3C(=O)O)cc21 | > 44.6
Cc1ccc(N2CC(C(=O)Nc3cc(C)on3)CC2=O)c(C)c1 (stereo not given) | > 47
CC1(C)CC(=O)C=C(NCC(O)c2ccccc2)C1 (stereo not given) | 36.7 (≈ 142 µM)
CC(C)(C)NC(=O)NC(=O)CN1CCc2ccccc21 | 27.5 (≈ 99.9 µM)
